Patent US20240158446A1, “CYCLIC COMPOUND HAVING SELECTIVE INHIBITORY ACTION ON KRAS OVER HRAS AND NRAS” (CHUGAI SEIYAKU KABUSHIKI KAISHA, priority 2021, published 2024)

Assays:
[1] = molecular target: GDP-bound KRAS wild-type protein (Homo sapiens, UniProt P01116); experiment: Binding to KRAS by surface plasmon resonance (SPR), Single Cycle Kinetics; settings: SPR, Single Cycle Kinetics, GDP-bound KRAS wild-type protein; read-out: KRAS KD
[2] = molecular target: GDP-bound NRAS wild-type protein (Homo sapiens, UniProt P01111); experiment: Binding to NRAS by surface plasmon resonance (SPR), Single Cycle Kinetics; settings: SPR, GDP-bound NRAS wild-type protein vs GDP-bound KRAS wild-type protein
[3] = molecular target: GDP-bound HRAS wild-type protein (Homo sapiens, UniProt P01112); experiment: Binding to HRAS by surface plasmon resonance (SPR), Single Cycle Kinetics; settings: SPR, GDP-bound HRAS wild-type protein vs GDP-bound KRAS wild-type protein
Sequence of GDP-bound HRAS wild-type protein (P01112 whole entry): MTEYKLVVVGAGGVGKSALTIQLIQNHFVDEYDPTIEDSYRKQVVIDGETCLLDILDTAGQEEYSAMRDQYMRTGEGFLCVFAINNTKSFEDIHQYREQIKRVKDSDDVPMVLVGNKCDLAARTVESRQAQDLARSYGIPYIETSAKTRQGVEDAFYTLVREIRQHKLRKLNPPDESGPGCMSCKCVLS

Sequence of GDP-bound NRAS wild-type protein (P01111 whole entry): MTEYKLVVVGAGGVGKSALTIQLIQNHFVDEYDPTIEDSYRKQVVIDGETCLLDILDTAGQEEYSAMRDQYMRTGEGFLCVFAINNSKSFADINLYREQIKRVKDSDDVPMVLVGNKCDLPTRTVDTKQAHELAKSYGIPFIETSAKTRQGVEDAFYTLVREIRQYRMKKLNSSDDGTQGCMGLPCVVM
Sequence of GDP-bound KRAS wild-type protein (P01116 whole entry): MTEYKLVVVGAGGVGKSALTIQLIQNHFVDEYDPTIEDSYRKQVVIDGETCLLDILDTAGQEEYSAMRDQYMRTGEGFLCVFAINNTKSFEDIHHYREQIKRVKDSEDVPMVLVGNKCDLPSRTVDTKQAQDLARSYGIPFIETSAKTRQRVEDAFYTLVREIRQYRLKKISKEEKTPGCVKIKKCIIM

| Compound | Kd [1] [nM] | NRAS/KRAS (ratio of KD value for NRAS to KD value for KRAS) [2] | HRAS/KRAS (ratio of KD value for HRAS to KD value for KRAS) [3] |
| --- | --- | --- | --- |
| CCO[C@@H]1C[C@H]2C(=O)NC3(CCC3)C(=O)N(C)[C@@H](C3CCCC3)C(=O)N(C)[C@H](C(=O)N(C)C)CC(=O)N(C)[C@@H](Cc3cccc(Cl)c3)C(=O)N[C@@H]([C@@H](C)CC)C(=O)N(C)CC(=O)N(C)[C@H]3CCCCCN(C3=O)[C@@H](Cc3ccc(C(F)(F)F)cc3)C(=O)N(C)CC(=O)N[C@@H](CCc3cc(F)c(C(F)(F)F)c(F)c3)C(=O)N2C1 [PP0939] | 0.91 | B (a compound having 3 or more and less than 10 is denoted as B) | B (a compound having 3 or more and less than 10 is denoted as B) |
| CCO[C@@H]1C[C@H]2C(=O)NC3(CCC3)C(=O)N(C)[C@@H](C3CCCC3)C(=O)N(C)[C@H](C(=O)N(C)C)CC(=O)N(C)[C@@H](Cc3ccc(Cl)cc3)C(=O)N[C@@H]([C@@H](C)CC)C(=O)N(C)CC(=O)N(C)[C@H]3CCCCCN(C3=O)[C@@H](Cc3ccc(C(F)(F)F)cc3)C(=O)N(C)CC(=O)N[C@@H](CCc3cc(F)c(C(F)(F)F)c(F)c3)C(=O)N2C1 [PP0940] | 2 | B (a compound having 3 or more and less than 10 is denoted as B) | C (A compound having a KD ratio of 0.1 or more and less than 3 is denoted as C) |
| CCO[C@@H]1C[C@H]2C(=O)NC3(CCC3)C(=O)N(C)[C@@H](C3CCCC3)C(=O)N(C)[C@H](C(=O)N(C)C)CC(=O)N(C)[C@@H](Cc3cccc(C)c3)C(=O)N[C@@H]([C@@H](C)CC)C(=O)N(C)CC(=O)N(C)[C@H]3CCCCCN(C3=O)[C@@H](Cc3ccc(C(F)(F)F)cc3)C(=O)N(C)CC(=O)N[C@@H](CCc3cc(F)c(C(F)(F)F)c(F)c3)C(=O)N2C1 [PP0942] | 0.99 | B (a compound having 3 or more and less than 10 is denoted as B) | B (a compound having 3 or more and less than 10 is denoted as B) |
| CCO[C@@H]1C[C@H]2C(=O)NC3(CCC3)C(=O)N(C)[C@@H](C3CCCC3)C(=O)N(C)[C@H](C(=O)N(C)C)CC(=O)N(C)[C@@H](Cc3ccc(C)cc3)C(=O)N[C@@H]([C@@H](C)CC)C(=O)N(C)CC(=O)N(C)[C@H]3CCCCCN(C3=O)[C@@H](Cc3ccc(C(F)(F)F)cc3)C(=O)N(C)CC(=O)N[C@@H](CCc3cc(F)c(C(F)(F)F)c(F)c3)C(=O)N2C1 [PP0943] | 1.1 | B (a compound having 3 or more and less than 10 is denoted as B) | B (a compound having 3 or more and less than 10 is denoted as B) |
| CCO[C@@H]1C[C@H]2C(=O)NC3(CCC3)C(=O)N(C)[C@@H](C3CCCC3)C(=O)N(CC)[C@H](C(=O)N3CCOCC3)CC(=O)N(C)[C@@H](CC)C(=O)N[C@@H]([C@@H](C)CC)C(=O)N(C)CC(=O)N(C)[C@H]3CCCCCN(C3=O)[C@@H](Cc3ccc(C(F)(F)F)cc3)C(=O)N(C)CC(=O)N[C@@H](CCc3cc(F)c(C(F)(F)F)c(F)c3)C(=O)N2C1 [PP0944] | 3.9 | A (a compound having 10 or more and less than 20 is denoted as A) | A (a compound having 10 or more and less than 20 is denoted as A) |
| CCO[C@@H]1C[C@H]2C(=O)NC3(CCC3)C(=O)N(C)[C@@H](C3CCCC3)C(=O)N(CC)[C@H](C(=O)N3CCOCC3)CC(=O)N(C)[C@@H](CO)C(=O)N[C@@H]([C@@H](C)CC)C(=O)N(C)CC(=O)N(C)[C@H]3CCCCCN(C3=O)[C@@H](Cc3ccc(C(F)(F)F)cc3)C(=O)N(C)CC(=O)N[C@@H](CCc3cc(F)c(C(F)(F)F)c(F)c3)C(=O)N2C1 [PP0945] | 3.7 | B (a compound having 3 or more and less than 10 is denoted as B) | A (a compound having 10 or more and less than 20 is denoted as A) |
| CCO[C@@H]1C[C@H]2C(=O)NC3(CCC3)C(=O)N(C)[C@@H](C3CCCC3)C(=O)N(CC)[C@H](C(=O)N3CCOCC3)CC(=O)N(C)[C@@H](COC)C(=O)N[C@@H]([C@@H](C)CC)C(=O)N(C)CC(=O)N(C)[C@H]3CCCCCN(C3=O)[C@@H](Cc3ccc(C(F)(F)F)cc3)C(=O)N(C)CC(=O)N[C@@H](CCc3cc(F)c(C(F)(F)F)c(F)c3)C(=O)N2C1 [PP0946] | 2.2 | A (a compound having 10 or more and less than 20 is denoted as A) | B (a compound having 3 or more and less than 10 is denoted as B) |
| CCO[C@@H]1C[C@H]2C(=O)NC3(CCC3)C(=O)N(C)[C@@H](C3CCCC3)C(=O)N(CC)[C@H](C(=O)N3CCOCC3)CC(=O)N(C)[C@@H](CCOC)C(=O)N[C@@H]([C@@H](C)CC)C(=O)N(C)CC(=O)N(C)[C@H]3CCCCCN(C3=O)[C@@H](Cc3ccc(C(F)(F)F)cc3)C(=O)N(C)CC(=O)N[C@@H](CCc3cc(F)c(C(F)(F)F)c(F)c3)C(=O)N2C1 [PP0947] | 3.4 | A (a compound having 10 or more and less than 20 is denoted as A) | A (a compound having 10 or more and less than 20 is denoted as A) |
| CCO[C@@H]1C[C@H]2C(=O)NC3(CCC3)C(=O)N(C)[C@@H](C3CCCC3)C(=O)N(CC)[C@H](C(=O)N3CCOCC3)CC(=O)N(C)[C@@H](Cc3ccccc3)C(=O)N[C@@H]([C@@H](C)CC)C(=O)N(C)CC(=O)N(C)[C@H]3CCCCCN(C3=O)[C@@H](Cc3ccc(C(F)(F)F)cc3)C(=O)N(C)CC(=O)N[C@@H](CCc3cc(F)c(C(F)(F)F)c(F)c3)C(=O)N2C1 [PP0950] | 6 | A (a compound having 10 or more and less than 20 is denoted as A) | B (a compound having 3 or more and less than 10 is denoted as B) |
| CCO[C@@H]1C[C@H]2C(=O)NC3(CCC3)C(=O)N(C)[C@@H](C3CCCC3)C(=O)N(CC)[C@H](C(=O)N3CCOCC3)CC(=O)N(C)[C@@H](CCc3ccccc3)C(=O)N[C@@H]([C@@H](C)CC)C(=O)N(C)CC(=O)N(C)[C@H]3CCCCCN(C3=O)[C@@H](Cc3ccc(C(F)(F)F)cc3)C(=O)N(C)CC(=O)N[C@@H](CCc3cc(F)c(C(F)(F)F)c(F)c3)C(=O)N2C1 [PP0953] | 27 | A (a compound having 10 or more and less than 20 is denoted as A) | A (a compound having 10 or more and less than 20 is denoted as A) |
| CC[C@H](C)[C@@H]1NC(=O)[C@H](CC(C)C)N(C)C(=O)C[C@@H](C(=O)N2CCOCC2)N(CC)C(=O)[C@H](C2CCCC2)N(C)C(=O)C2(CCC2)NC(=O)[C@@H]2[C@H](O)CCN2C(=O)[C@H](CCc2cc(F)c(C(F)(F)F)c(F)c2)NC(=O)CN(C)C(=O)[C@H](Cc2ccc(C(F)(F)F)cc2)N2CCCCC[C@@H](C2=O)N(C)C(=O)CN(C)C1=O [PP0955] | 19 | A (a compound having 10 or more and less than 20 is denoted as A) | A (a compound having 10 or more and less than 20 is denoted as A) |
| CCO[C@@H]1C[C@H]2C(=O)NC3(CC=CC3)C(=O)N(C)[C@@H](C3CCCC3)C(=O)N(CC)[C@H](C(=O)N3CCOCC3)CC(=O)N(C)[C@@H](CC(C)C)C(=O)N[C@@H]([C@@H](C)CC)C(=O)N(C)CC(=O)N(C)[C@H]3CCCCCN(C3=O)[C@@H](Cc3ccc(C(F)(F)F)cc3)C(=O)N(C)CC(=O)N[C@@H](CCc3cc(F)c(C(F)(F)F)c(F)c3)C(=O)N2C1 [PP0956] | 7.2 | A (a compound having 10 or more and less than 20 is denoted as A) | A (a compound having 10 or more and less than 20 is denoted as A) |
| CC[C@H](C)[C@@H]1NC(=O)[C@H](COC)N(C)C(=O)C[C@@H](C(=O)N2CCOCC2)N(C)C(=O)[C@H](C2CCCC2)N(C)C(=O)C2(CCCC2)NC(=O)[C@@H]2CCCN2C(=O)[C@H](CCc2ccc(C(F)(F)F)c(Cl)c2)NC(=O)CN(C)C(=O)[C@H](Cc2ccc(F)cc2)N2CCCCC[C@@H](C2=O)N(C)C(=O)CN(C)C1=O [PP0960] | 0.37 | B (a compound having 3 or more and less than 10 is denoted as B) | B (a compound having 3 or more and less than 10 is denoted as B) |
| CC[C@H](C)[C@@H]1NC(=O)[C@H](CC(C)C)N(C)C(=O)C[C@@H](C(=O)N2CCOCC2)N(C)C(=O)[C@H](C2CCCC2)N(C)C(=O)C2(CCCC2)NC(=O)[C@@H]2CC(F)(F)CN2C(=O)[C@H](CCc2ccc(C(F)(F)F)c(Cl)c2)NC(=O)CN(C)C(=O)[C@H](Cc2ccc(F)cc2)N2CCCCC[C@@H](C2=O)N(C)C(=O)CN(C)C1=O [PP0966] | 0.23 | B (a compound having 3 or more and less than 10 is denoted as B) | B (a compound having 3 or more and less than 10 is denoted as B) |
| CC[C@H](C)[C@@H]1NC(=O)[C@H](CC(C)C)N(C)C(=O)C[C@@H](C(=O)N2CCOCC2)N(C)C(=O)[C@H](C2CCCC2)N(C)C(=O)C2(CCC2)NC(=O)[C@@H]2CCCN2C(=O)[C@H](CCc2ccc(C(F)(F)F)c(Cl)c2)NC(=O)CN(C)C(=O)[C@H](Cc2ccc(F)cc2)N2CCCCC[C@@H](C2=O)N(C)C(=O)CN(C)C1=O [PP0967] | 0.33 | B (a compound having 3 or more and less than 10 is denoted as B) | B (a compound having 3 or more and less than 10 is denoted as B) |
| CC[C@H](C)[C@@H]1NC(=O)[C@H](CC(C)C)N(C)C(=O)C[C@@H](C(=O)N2CCOCC2)N(CC)C(=O)[C@H](C2CCCC2)N(C)C(=O)C2(CCCC2)NC(=O)[C@@H]2CCCN2C(=O)[C@H](CCc2ccc(C(F)(F)F)c(Cl)c2)NC(=O)CN(C)C(=O)[C@H](Cc2ccc(F)cc2)N2CCCCC[C@@H](C2=O)N(C)C(=O)CN(C)C1=O [PP0970] | 2.2 | B (a compound having 3 or more and less than 10 is denoted as B) | B (a compound having 3 or more and less than 10 is denoted as B) |
